According to patent US6255250A, “Plant growth regulators in pyrrolidone solvents” (BASF Corporation, priority 1997, dated 2001):

How the values were obtained:
Cotton = assay type: in vivo; details: mc column, mepiquat chloride 12 g/ha
From the text: This resulting composition was mixed with PIX® mepiquat chloride plant growth regulator (BASF Corporation) such that the mepiquat chloride was applied to cotton in field studies at a rate of 12 g/ha and the {[(isopropylidene)-amino]oxy}-acetic acid-2-(methoxy)-2-oxoethyl ester contained in the solvent with an emulsifier system was applied at 1 and 10 g/ha.

cotton plants = details: approximately 62.5 to 500 g ai/ha assuming spray volume 500 l/ha; cited from earlier work
horticultural plants = details: several horticultural plants; cited from earlier work
peach = details: low rate (0.08 mM); cited from earlier work
physchem = details: water
Method: Formulations of the present invention were prepared as described in Example 1 and were tested for hydrolysis half-life.

With `C[N+]1(C)CCCCC1` [mepiquat chloride] the “Frequency of Positive Yield” value (Cotton) was 38% and the “Relative Yield (% compared to untreated)” value (Cotton) was 102%.
For `NCCOC=CC(N)C(=O)O` (stereo not drawn) [aminoethoxyvinylglycine], the “improvement in a plant growth factor with increasing rate” value (cotton plants) is given as “As the rate of AVG treatment increased, so did the improvement”.
In the case of `O=P(O)(O)CCCl` [ethephon], the “effect on yields and hardiness” value (horticultural plants) is given as “increased the yields and hardiness of several horticultural plants” and the “effect on bloom and side effects in peach” value (peach) is given as “significantly delayed bloom in peach and reduced side effects”.
`COC(=O)COC(=O)CON=C(C)C` [{[(isopropylidene)-amino]oxy}-acetic acid-2-(methoxy)-2-oxoethyl ester] gave a half-life (physchem) of 12 to 21 days.
